{"source": "patent US8183388B2", "about": "“Androgen receptor modulator and uses thereof” (Eli Lilly and Company, priority 2009, dated 2012)", "biological_target": "T1, human AR (androgen receptor) (Homo sapiens, UniProt P10275)", "T1 construct": "expressed in transfected cells; host or cells: HEK293 (lysate, 293-AR)", "T1 sequence (P10275 1-920)": "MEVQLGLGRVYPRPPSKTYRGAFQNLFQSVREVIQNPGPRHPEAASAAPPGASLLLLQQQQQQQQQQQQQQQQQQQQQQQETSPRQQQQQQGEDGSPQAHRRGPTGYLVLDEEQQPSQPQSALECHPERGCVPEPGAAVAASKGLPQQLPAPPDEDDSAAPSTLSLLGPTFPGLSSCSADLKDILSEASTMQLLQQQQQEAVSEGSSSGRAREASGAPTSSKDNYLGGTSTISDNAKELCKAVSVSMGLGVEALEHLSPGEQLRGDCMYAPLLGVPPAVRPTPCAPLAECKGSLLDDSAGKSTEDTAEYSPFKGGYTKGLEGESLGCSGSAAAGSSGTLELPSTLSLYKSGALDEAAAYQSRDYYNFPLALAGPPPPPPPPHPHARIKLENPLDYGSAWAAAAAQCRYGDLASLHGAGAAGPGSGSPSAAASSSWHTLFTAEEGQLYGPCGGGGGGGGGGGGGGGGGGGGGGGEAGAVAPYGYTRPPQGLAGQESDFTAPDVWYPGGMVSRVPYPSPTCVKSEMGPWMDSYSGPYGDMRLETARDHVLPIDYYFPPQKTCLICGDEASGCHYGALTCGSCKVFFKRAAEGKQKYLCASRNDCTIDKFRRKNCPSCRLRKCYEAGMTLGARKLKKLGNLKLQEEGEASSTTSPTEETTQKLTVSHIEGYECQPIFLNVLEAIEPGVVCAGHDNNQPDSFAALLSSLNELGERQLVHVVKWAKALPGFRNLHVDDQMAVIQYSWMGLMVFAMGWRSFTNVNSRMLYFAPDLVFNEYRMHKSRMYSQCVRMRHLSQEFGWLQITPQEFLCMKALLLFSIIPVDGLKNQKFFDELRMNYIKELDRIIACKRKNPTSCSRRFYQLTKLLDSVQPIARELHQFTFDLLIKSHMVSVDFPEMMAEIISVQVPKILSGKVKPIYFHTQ", "test": "Steroid hormone nuclear receptor binding assay, AR", "settings": "HEK293 lysate overexpressing human AR, [3H]-methyltrienolone", "description": "Cell lysates from human embryonic kidney HEK293 cells overexpressing human MR (mineralocorticoid receptor), GR (glucocorticoid receptor), AR (androgen receptor), or PR (progesterone receptor) are used for receptor-ligand competition binding assays to determine Ki values. Typical procedures are provided below\nBriefly, steroid receptor competition binding assays are run in a buffer containing 20 mM HEPES buffer (pH=7.6), 0.2 mM EDTA, 75 mM NaCl, 1.5 mM MgCl2, 20% glycerol, 20 mM sodium molybdate, 0.2 mM DTT (dithiothreitol), 20 μg/mL aprotinin and 20 μg/mL leupeptin (assay buffer). […] Assays are typically run in 96-well format. Competing test compounds are added at various concentrations ranging from about 0.01 nM to 10 μM. Non-specific binding is determined in the presence of 500 nM aldosterone for MR binding, 500 nM dexamethasone for GR binding, or 500 nM methyltrienolone for AR and PR binding. The binding reactions (140 μL) are incubated overnight at 4° C., then 70 μL of cold charcoal-dextran buffer (containing per 50 mL of assay buffer, 0.75 g of charcoal and 0.25 g of dextran) is added to each reaction. […] After an incubation of 2 hours, plates are read in a Wallac Microbeta counter.\nThe Kd for [^3H]-aldosterone for MR binding, [^3H]-dexamethasone for GR binding, [^3H]-methyltrienolone for AR binding, or [^3H]-methyltrienolone for PR binding, is determined by saturation binding. […]"}
{"smiles": "CC(C)OC(=O)N[C@H]1Cc2c(n(C[C@H]3OCC[C@@H]3O)c3ccc(C#N)cc23)C1", "note": "[compound of Formula (I), [(S)-7-Cyano-4-((2R,3S)-3-hydroxytetrahydrofuran-2-ylmethyl)-1,2,3,4-tetrahydrocyclopenta[b]indol-2-yl]-carbamic acid isopropyl ester]", "values": [{"measurement": "Ki", "result": "~10", "unit": "nM"}]}
